Legend:
Format in all cases: in vivo
Matricaria = assay: Pre-emergence test/Greenhouse, Matricaria; conditions: after three weeks
How it was run: (§1)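 Emulsifier-formulated compound applied by soil watering ~24 h after sowing; damage scored at three weeks as % of untreated control.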

weeds = assay: Pre-emergence test (greenhouse), activity against weeds; conditions: in words
How it was run: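 Three weeks after treatment, % damage relative to untreated plants is scored, 0% meaning no effect. Seeds in normal soil received, roughly one day post-sowing, an aqueous dilution of an acetone/emulsifier concentrate, with the rate per unit area, not concentration, being the relevant dose.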

Solanum = assay: Pre-emergence test/Greenhouse, Solanum; conditions: after three weeks
How it was run: as §1

Ambrosia = assay: Pre-emergence test/Greenhouse, Ambrosia; conditions: after three weeks
How it was run: as §1

Maize = assay: Pre-emergence test/Greenhouse, Maize
How it was run: as §1

Soya beans = assay: Pre-emergence test/Greenhouse, Soya beans
Protocol: (§2) To produce a suitable preparation of the active compound, 1 part by weight of active compound is mixed with the stated amount of solvent, the stated amount of emulsifier is added and the concentrate is diluted with water to the desired concentration.
(§3) Seeds of the test plants are sown in normal soil. After about 24 hours, the soil is watered with the preparation of active compound. Advantageously, the amount of water per unit area is kept constant. The active compound concentration in the preparation is not important, only the active compound appliation rate per unit area matters.
(§4) After three weeks, the degree of damage to the plants is rated in % damage in comparison to the development of the untreated control.
(§5) 0%=no action (like untreated control)

Poa = assay: Pre-emergence test/Greenhouse, Poa; conditions: after three weeks
How it was run: as §1

Lolium = assay: Pre-emergence test/Greenhouse, Lolium; conditions: after three weeks
How it was run: as §1

Sorghum = assay: Pre-emergence test/Greenhouse, Sorghum; conditions: 125 g of ai./ha, after three weeks
Protocol: as §2, §3, §4, §5

[1] = pre-emergence, 60 g of ai./ha, after three weeks

| SMILES | degree of damage to the plants (% damage vs untreated control), Matricaria (Matricaria; 60 g of ai./ha) [%] | activity against weeds (weeds) | degree of damage to the plants (% damage vs untreated control), Solanum (Solanum; 60 g of ai./ha) [%] | degree of damage to the plants (% damage vs untreated control), Ambrosia (Ambrosia; 60 g of ai./ha) [%] | degree of damage to the plants (% damage vs untreated control), Maize (Maize; in vivo) [%] | degree of damage to the plants (% damage vs untreated control), Soya beans (Soya beans; in vivo) [%] | degree of damage to the plants (% damage vs untreated control), Poa (Poa; 60 g of ai./ha) [%] | degree of damage to the plants (% damage vs untreated control), Lolium (Lolium; 60 g of ai./ha) [%] | degree of damage to the plants (% damage vs untreated control), Matricaria (Matricaria; 125 g of ai./ha) [%] | degree of damage to the plants (% damage vs untreated control), Solanum (Solanum; 125 g of ai./ha) [%] | degree of damage to the plants (% damage vs untreated control), Ambrosia (Ambrosia; 125 g of ai./ha) [%] | degree of damage to the plants (% damage vs untreated control), Sorghum (Sorghum) [%] | degree of damage to the plants (% damage vs untreated control), Poa (Poa; 125 g of ai./ha) [%] | degree of damage to the plants (% damage vs untreated control), Lolium (Lolium; 125 g of ai./ha) [%] | degree of damage to the plants (% damage vs untreated control), Maize (Maize; [1]) [%] | degree of damage to the plants (% damage vs untreated control), Soya beans (Soya beans; [1]) [%] |
| --- | --- | --- | --- | --- | --- | --- | --- | --- | --- | --- | --- | --- | --- | --- | --- | --- |
| CCn1c(OC)nn(C(=O)NS(=O)(=O)c2c(C)cccc2C(=O)OC(C)C)c1=O [Example 19] | 95 | very strong activity against weeds | 90 | 95 | 0 | 0 | 95 | 95 | – | – | – | – | – | – | – | – |
| CCOn1c(SC)nn(C(=O)NS(=O)(=O)c2c(C)cccc2C(=O)OC)c1=O [Example 146] | 80 | very strong activity against weeds | 90 | 80 | 0 | 10 | 90 | 80 | – | – | – | – | – | – | – | – |
| COC(=O)c1cccc(OC)c1S(=O)(=O)NC(=O)n1nc(OC(C)C)n(C2CC2)c1=O [Example 135] | – | very strong activity against weeds | – | – | – | 40 | – | – | 90 | 95 | 90 | 90 | 95 | 95 | – | – |
| CCOc1nn(C(=O)NS(=O)(=O)c2c(C)csc2C(=O)OC(C)C)c(=O)n1CC [Example 86] | – | very strong activity against weeds | – | – | 10 | 40 | – | – | 100 | 95 | – | 70 | – | 80 | – | – |
| CCOC(=O)c1scc(C)c1S(=O)(=O)NC(=O)n1nc(OCC)n(CC)c1=O [Example 64] | 100 | very strong activity against weeds | 100 | 100 | 10 | 30 | 60 | 90 | – | – | – | – | – | – | – | – |
| CCOn1c(SCC)nn(C(=O)NS(=O)(=O)c2c(C)cccc2C(=O)OC)c1=O [Example 3, 4-ethoxy-5-ethylthio-2-(2-methyl-6-methoxy-carbonyl-phenylsulphonylaminocarbonyl)-2,4-dihydro-3H-1,2,4-triazol-3-one] | 95 | very strong activity against weeds | 80 | 80 | – | – | 70 | 90 | – | – | – | – | – | – | 10 | 20 |
| COC(=O)c1scc(C)c1S(=O)(=O)NC(=O)n1nc(OC(C)C)n(C)c1=O [Example 40] | 95 | very strong activity against weeds | 95 | 95 | 10 | 30 | 95 | 90 | – | – | – | – | – | – | – | – |
| C#CCSc1nn(C(=O)NS(=O)(=O)c2c(C)cccc2C(=O)OC)c(=O)n1C [Example 161] | 95 | very strong activity against weeds | 95 | 95 | 0 | 20 | 95 | 95 | – | – | – | – | – | – | – | – |

Reference: patent US6441195B1, “Substituted sulphonylamino(thio) carbonyl compounds” (Bayer Aktiengesellschaft, priority 1995, dated 2002)
